Test results taken from patent US20230414575A1, “MK2 ACTIVATING COMPOUNDS FOR USE IN TREATING VASCULAR LEAK AND ENDOTHELIAL BARRIER DISORDERS” (Akttyva Therapeutics, Inc., priority 2020, published 2023).
Where a name gives a salt, the structure may show the parent alone.

Tests used:
MK2 [1] = biological target: T1, MK2 (Rattus norvegicus, UniProt Q80ZF4); assay: ELISA MK2 cell-based activity assay (phospho-HSP-27), RMVEC cells; details: compound 20 μM, 30 minutes, 37° C.; for Average Response HSP27: phospho-HSP27 ELISA
T1 construct: endogenous in cells; host or cells: rat microvascular endothelial cells (RMVEC)
Experimental: (§1) The MK2 activator candidates, identified using the artificial intelligence (AI)-assisted docking approach, were tested in activity assays for lead selection against the MK2 target. MK2 activation was assessed using (a) a cell-based assay using rat microvascular endothelial cells (RMVEC) and (b) human cancer skin fibroblast cells (Malme-3M). In both assays, an Enzyme-linked ImmunoSorbent Assay (ELISA) technique was used to measure (HSP-27) phosphorylation (DYC2314-2, R&D Systems). Both cell lines were grown to confluency in a 96-well tissue culture plate and treated at 37° C. for 30 minutes with the test compounds at concentrations of 20 μM. The cells were subsequently lysed with a lysis solution containing 0.5% Triton X-100 and anti-proteolysis agents. The resulting lysates were then loaded onto ELISA plates coated with anti-rat phospho-HSP27. After incubation and washing, the plates were treated with an horseradish peroxidase (HRP)-conjugated anti-phospho-HSP27 secondary antibody and then measured for chemiluminescence. Higher activity compounds, acting on MK2, induced higher levels of HSP-27 phosphorylation, as measured by the ELISA.

MK2 [2] = biological target: T2, MK2 (Homo sapiens, UniProt P49137); assay: ELISA MK2 cell-based activity assay (phospho-HSP-27), Malme-3M cells; details: for Ratio to Control / Pho-HSP27: Malme-3M cells, compound 20 μM, 30 minutes, 37° C.; for Pho-HSP27: phospho-HSP27 ELISA
T2 construct: endogenous in cells; host or cells: Malme-3M
Experimental: as §1

T2 sequence (P49137 whole entry): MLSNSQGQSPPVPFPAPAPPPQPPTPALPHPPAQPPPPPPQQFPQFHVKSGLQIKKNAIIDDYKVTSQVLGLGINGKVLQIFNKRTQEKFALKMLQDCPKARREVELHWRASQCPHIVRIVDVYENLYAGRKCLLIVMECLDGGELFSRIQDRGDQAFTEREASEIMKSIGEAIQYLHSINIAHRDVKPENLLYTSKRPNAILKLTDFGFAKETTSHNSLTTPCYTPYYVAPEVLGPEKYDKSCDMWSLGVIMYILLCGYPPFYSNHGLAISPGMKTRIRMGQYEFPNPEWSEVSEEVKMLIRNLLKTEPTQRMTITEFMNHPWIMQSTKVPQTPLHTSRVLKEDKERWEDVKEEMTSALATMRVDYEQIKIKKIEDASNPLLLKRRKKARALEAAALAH
T1 sequence (Q80ZF4 1-386): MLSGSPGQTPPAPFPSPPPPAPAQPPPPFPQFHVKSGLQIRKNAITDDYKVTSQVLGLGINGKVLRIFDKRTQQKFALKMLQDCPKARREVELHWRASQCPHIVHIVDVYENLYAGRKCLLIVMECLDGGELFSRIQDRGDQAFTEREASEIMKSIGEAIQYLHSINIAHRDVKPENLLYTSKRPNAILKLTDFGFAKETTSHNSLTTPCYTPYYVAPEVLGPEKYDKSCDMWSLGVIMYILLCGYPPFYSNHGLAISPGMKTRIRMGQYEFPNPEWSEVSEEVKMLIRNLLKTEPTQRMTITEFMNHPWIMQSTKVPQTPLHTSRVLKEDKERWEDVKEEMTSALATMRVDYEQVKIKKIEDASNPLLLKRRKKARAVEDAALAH

| Ratio Compound/control (MK2 [1]) | Average Response HSP27 (MK2 [1]) | Ratio to Control (MK2 [2]) | Pho-HSP27 (MK2 [2]) | response in phospho-HSP27 ELISA, overall ranking (MK2 [2]; overall statement on compounds tested at 20 μM (Malme-3M and RMVEC cells)) | Molecule |
| --- | --- | --- | --- | --- | --- |
| 1.1 | 10.4 pg/mL | – | – | – | Cl.Cl.OCCN1CCN(CCC=C2c3ccccc3Sc3ccc(C(F)(F)F)cc32)CC1 (mixture of isomers) [Flupenthixol dihydrochloride] |
| 0.9 | 6.3 pg/mL | – | – | – | c1cc(OCCN2CCCCC2)cc(-c2n[nH]c3ccc(-c4nc[nH]n4)cc23)c1 [CC-401 Hydrochloride] |
| 0.7 | 2.7 pg/mL | – | – | – | Cc1ccccc1-c1cc(N2CCN(C)CC2)ncc1N(C)C(=O)C(C)(C)c1cc(C(F)(F)F)cc(C(F)(F)F)c1 [Compound 9, Netupitant] |
| 1.1 | 19.4 pg/mL | 1.2 | 26.9 pg/mL | – | COc1ccc(-c2ccc3ncc4c(c3c2)n(-c2ccc(N3CCNCC3)c(C(F)(F)F)c2)c(=O)n4C)cn1 [Compound 14, Bgt-226] |
| 1.1 | 4.3 pg/mL | – | – | – | Cc1nc2n(c(=O)c1CCN1CCC(c3noc4cc(F)ccc34)CC1)CCCC2O (centres unmarked) [Compound 20, Paliperidone] |
| – | – | 32.0 | 720.7 pg/mL | most robust response | O=C1[C@H]2CCCC[C@H]2C(=O)N1CCCCN1CCN(c2nsc3ccccc23)CC1 [Compound 23, Perospirone] |
| – | – | 1.6 | 35.4 pg/mL | – | O=C1Cc2cc(CCN3CCN(c4nsc5ccccc45)CC3)c(Cl)cc2N1 [Compound 24, Ziprasidone] |
| 0.9 | 6.2 pg/mL | – | – | – | COc1cc2ncnc(Oc3cccc(NC(=O)Nc4cc(C(C)(C)C(F)(F)F)on4)c3)c2cc1OC [Compound 27, Cep-32496] |
| 0.2 | 0.9 pg/mL | – | – | – | CCn1cc(-c2ccnc3[nH]c(-c4cccc(CN(C)C)c4)cc23)c(-c2ccc(NC(=O)N(C)C)cc2)n1 [Compound 28, Gsk-1070916] |
| 1.8 | 39.0 pg/mL | 1.0 | 22.1 pg/mL | – | C[C@@H](Oc1cc(-n2cnc3ccc(CN4CCN(C)CC4)cc32)sc1C(N)=O)c1ccccc1C(F)(F)F [Compound 29, Gsk-461364] |
| 0.3 | 0.0 pg/mL | – | – | – | Cn1cc(-c2ccc(F)c(C(F)(F)F)c2)nc1C1CCN(c2ncnc3[nH]ncc23)CC1 [Compound 30, Ly-2584702] |
| 1.6 | 20.4 pg/mL | 0.9 | 21.2 pg/mL | – | Cc1csc(-c2nnc(Nc3ccc(Oc4ncccc4-c4ccnc(N)n4)cc3)c3ccccc23)c1 [Compound 33, Amg- 900] |
| 0.9 | 21.4 pg/mL | 0.7 | 15.7 pg/mL | – | C=CCn1c(=O)c2cnc(Nc3ccc(N4CCN(C)CC4)cc3)nc2n1-c1cccc(C(C)(C)O)n1 [Compound 36, Azd-1775] |
| 1.6 | 34.0 pg/mL | 1.6 | 36.8 pg/mL | – | FC(F)(F)c1ccc(/C=C/c2nc(COc3ccc(CCCCn4ccnn4)cc3)co2)cc1 [Compound 37, Mubritinib] |
| 1.0 | 17.8 pg/mL | 0.9 | 21.2 pg/mL | – | Nc1ccccc1NC(=O)c1ccc(CNc2nccc(-c3cccnc3)n2)cc1 [Compound 38, Mocetinostat] |
| 1.0 | 4.8 pg/mL | – | – | – | Cc1nc(Nc2[nH]nc3c2CN(C(=O)N[C@H](CN(C)C)c2ccccc2)C3(C)C)c2sccc2n1 [Compound 39, Pf-03758309] |
| 1.1 | 25.4 pg/mL | 1.7 | 38.7 pg/mL | – | Cc1nc2ccc(CN(C)c3ccc(C(=O)N[C@@H](CCC(=O)O)C(=O)O)s3)cc2c(=O)[nH]1 [Compound 41, Raltitrexed] |
| 0.4 | 5.7 pg/mL | – | – | – | CC(C)c1cc(CNc2nc(Nc3cc(C4CC4)[nH]n3)cc(N3CCN(C)CC3)n2)on1 [Compound 43, Xl-228] |
| 0.9 | 5.9 pg/mL | – | – | – | CC(=O)N1CCN(CCOc2ccc(C3CCN(C4=Nn5c(nnc5C(F)(F)F)CC4)CC3)cc2)CC1 [Compound 44, Azd3514] |

| Ratio Compound/control (MK2 [1]) | Average Response HSP27 (MK2 [1]) | Ratio to Control (MK2 [2]) | Pho-HSP27 (MK2 [2]) | response in phospho-HSP27 ELISA, overall ranking (MK2 [2]; overall statement on compounds tested at 20 μM (Malme-3M and RMVEC cells)) | Molecule |
| --- | --- | --- | --- | --- | --- |
| 0.2 | -0.2 pg/mL | – | – | – | CCS(=O)(=O)c1cccc(-c2cc(C(=O)NC3CCN(C)CC3)c(C)c3[nH]c4ncc(C)cc4c23)c1 [Compound 46, Tak-901] |
| 0.9 | 8.5 pg/mL | – | – | – | Cn1c(Nc2ccc(C(F)(F)F)cc2)nc2cc(Oc3ccnc(-c4ncc(C(F)(F)F)[nH]4)c3)ccc21 [Compound 47, Chir-265] |
| 1.3 | 12.1 pg/mL | – | – | – | Cc1c(NC(=O)OC[C@@H]2COCCN2)cn2ncnc(Nc3ccc4c(cnn4Cc4cccc(F)c4)c3)c12 [Compound 49, Ac-480] |
| 1.0 | 21.7 pg/mL | 0.9 | 20.8 pg/mL | – | Cc1cn(-c2cc(NC(=O)c3ccc(C)c(Nc4nccc(-c5cnccn5)n4)c3)cc(C(F)(F)F)c2)cn1 [Compound 52, Radotinib] |
| 1.3 | 9.0 pg/mL | – | – | – | CCN1CCN(Cc2ccc(NC(=O)Nc3ccc(Oc4cc(NC)ncn4)cc3)cc2C(F)(F)F)CC1 [Compound 55, Ast-487] |
| 0.3 | 4.6 pg/mL | – | – | – | Cc1cc(Nc2cc(N3CCN(C)CC3)nc(/C=C/c3ccccc3)n2)n[nH]1 [Compound 56, Enmd-2076] |
| 1.3 | 8.8 pg/mL | – | – | – | CNCc1ccc(C)c(NC(=O)c2ccc(Nc3nc(-c4ccccc4)c4ccccc4n3)cc2)c1 [Compound 57, Bms - 833923] |
| 1.3 | 5.2 pg/mL | – | – | – | Cc1oncc1C(=O)Nc1ccc(C(F)(F)F)cc1 [Compound 72, Leflunomide] |
| 1.0 | 6.6 pg/mL | – | – | – | CCc1cc(/C(C)=N/OCc2ccc(C3CCCCC3)c(C(F)(F)F)c2)ccc1CN1CC(C(=O)O)C1 [Compound 76, Siponimod] |
| 0.9 | 4.2 pg/mL | – | – | – | COCCOc1ccc(N2CCN(CCn3ncc4c3nc(N)n3nc(-c5ccco5)nc43)CC2)cc1 [Compound 106, Preladenant] |
| – | – | 0.8 | 17.3 pg/mL | – | CC(C)Nc1cccnc1N1CCN(C(=O)c2cc3cc(NS(C)(=O)=O)ccc3[nH]2)CC1 [Compound 108, Delavirdine] |
| 0.1 | 1.2 pg/mL | – | – | – | OCC(O)CN1CCN(c2ccccc2)CC1 (centres unmarked) [Dropropizine] |
| 1.3 | 11.7 pg/mL | – | – | – | O=C(Nc1cccc(C2=NCCN2)c1)Nc1cccc(C2=NCCN2)c1 [Imidocarb dipropionate] |
| 1.3 | 11.7 pg/mL | – | – | – | N=C(N)c1ccc2cc(OC(=O)c3ccc(N=C(N)N)cc3)ccc2c1 [Nafamostat Mesylate] |
| 2.2 | 43.2 pg/mL | – | – | – | O=C1[C@H]2CCCC[C@H]2C(=O)N1CCCCN1CCN(c2nsc3ccccc23)CC1 [Perospirone hydrochloride] |
| 1.5 | 32.3 pg/mL | – | – | – | O=C1Cc2cc(CCN3CCN(c4nsc5ccccc45)CC3)c(Cl)cc2N1 [Ziprasidone HCl] |
| 0.7 | 11.8 pg/mL | – | – | – | Cl.Cl.Cl.O[C@@H](COc1cccc2ncccc12)CN1CCN([C@@H]2c3ccccc3[C@@H]3[C@H](c4ccccc42)C3(F)F)CC1 [Zosuquidar (LY335979) 3HCl] |
| 1.1 | 18.4 pg/mL | – | – | – | Delavirdine (mesylate) |
| 2.7 | 11.7 pg/mL | – | – | – | MK2-AP (batch#2): presumably the positively charged MK2-activating peptide YARAAARQARAHPRNPARRTPGTRRGAPAA (SEQ ID NO: 7) (MK2 peptide fragment) |

| Molecule | Ratio Compound/control (MK2 [1]) | Average Response HSP27 (MK2 [1]) | Ratio to Control (MK2 [2]) | Pho-HSP27 (MK2 [2]) | response in phospho-HSP27 ELISA, overall ranking (MK2 [2]; overall statement on compounds tested at 20 μM (Malme-3M and RMVEC cells)) |
| --- | --- | --- | --- | --- | --- |
| Cc1cn(-c2cc(NC(=O)c3ccc(C)c(Nc4nccc(-c5cccnc5)n4)c3)cc(C(F)(F)F)c2)cn1 [Compound 51, Nilotinib] | 1.1 | 18.2 pg/mL | 0.6 | 12.7 pg/mL | – |
| NC(=O)[C@@H](CCC(F)(F)F)N(Cc1ccc(-c2ncon2)cc1F)S(=O)(=O)c1ccc(Cl)cc1 [Compound 115, Avagacestat] | 0.8 | 5.7 pg/mL | – | – | – |
| Cc1cc(N2CCN([C@@H]3CN[C@H](C(=O)N4CCSC4)C3)CC2)n(-c2ccccc2)n1 [Teneligliptin hydrobromide] | 0.8 | 4.0 pg/mL | – | – | – |
